The record followed here is US9676727B2, “Myxovirus therapeutics, compounds, and uses related thereto” (priority 2011, dated 2017).

Usually aqueous solubility stands for the concentration that dissolves in the medium under given conditions. The low end stands for a poorly soluble substance, the high end for a readily soluble substance. A word on the EC50: it is the midpoint of the concentration-response curve. For orientation: CC50 means the concentration at which the toxic effect on the cells reaches its halfway point. A higher CC50 goes with lower toxicity to the cells. As a reminder, the Cmax is the maximum level reached in the sampled fluid or tissue. A word on the Tmax: it is the time at which the peak concentration occurs.

The structures appear in SMILES notation. Values after ≈ are worked out from the molar mass of the structure shown.

Data set [1] is described as follows: Aqueous solubility by nephelometry. As to conditions: buffer pH=7.4; for Aqueous solubility (μg/ml) Test: Nephelometer. Format: physicochemical.
For data set [2], the system named is MV-Alaska. Description: Virus yield (virus titer) reduction assay. It counts as cell-based, Measles virus (MeV). Particulars: Measles morbillivirus; averages of two to four experiments ± SEM; highest concentration assessed 1 μM; read-out: EC50 (μM) (MV-Alaska) virus titer reduction.
The test system of the next data set is Vero cells. Description: MTT cytotoxicity. It counts as cell-based. As to conditions: averages of at least three experiments; highest concentration assessed 75 μM.
Data set [3] can be described thus: Pharmacokinetic study in rat, plasma concentration after dosing. Format: in vivo, Sprague-Dawley rat. Particulars: suspension in PEG200/0.5% methylcellulose (10/90). The method, then:
Preliminary pharmacokinetic (PK) studies in the Sprague-Dawley rat compared AS-136a with compounds 2k and 2o following p.o. dosing by oral gavage at 10 mg/kg and 50 mg/kg in a PEG200/0.5% methylcellulose (10/90) vehicle (n=4/group).
The data from the preliminary pharmacokinetic studies using the 6-hour time point are reported for comparison purposes. […] On the basis of its excellent in vitro potency, good solubility and pharmacokinetic profile, compound 2o was chosen for further bioavailability evaluation.

In data set [4] the test system is MV-Alaska. Kind of data set: Viral CPE-reduction assay (MeV-Alaska in Vero-SLAM cells, crystal violet). It counts as cell-based, Measles virus (MeV). The method, then:
Methods for evaluating viral activity are provided for in Yoon et al., J Biomol Screen., 2008, 13(7): 591-608 and Krumm et al., PLoS ONE, 2011, 6(5), e20069, both hereby incorporated by reference in their entirety. In certain instances, Vero-SLAM cells were infected with MeV-Alaska in four replicates per compound concentration in a 96-well plate format at an MOI of 0.4 pfu/cell in the presence of the inhibitor. At 96 hours post-infection, cell monolayers were subjected to crystal violet staining (0.1% crystal violet in 20% ethanol), and the absorbance of dried plates at 560 nm determined. Virus-induced cytopathicity was then calculated according to the formula [% rel. CPE=100-(experimental-minimum)/(maximum-minimum)*100], with minimum referring to infected, vehicle-treated wells and maximum to mock-infected wells.

The mark [5] stands for this setting: Measles morbillivirus, Table 1, piperidine series, read-out: EC50 (μM) (MV-Alaska) (CPE inhib.).
[6] abbreviates: Measles morbillivirus, Table 3, averages of four experiments, concentration range 2.3-75 μM, read-out: EC50 (μM) (MV-Alaska) CPE inhibition.
Where [7] appears, read: Measles morbillivirus, read-out: EC50 (μM) (MV-Alaska) (CPE inhib.).
Where [8] appears, read: Table 1, piperidine series, read-out: EC50 (μM) (MV-Alaska) (CPE inhib.).
[9] abbreviates: Measles morbillivirus, Table 2, phenyl and acyclic series, read-out: EC50 (μM) (MV-Alaska) (CPE inhibition).

Take `Cn1nc(C(F)(F)F)cc1C(=O)Nc1ccc(S(=O)(=O)N2CCCCC2)cc1` [AS-136a, 1-methyl-N-(4-(piperidin-1-ylsulfonyl)phenyl)-3-(trifluoromethyl)-pyrazole-5-carboxamide, reference compound]: the “aqueous solubility” value in data set [1] (nephelometry) was determined as 15.0 µg/mL (≈ 36 µM). Besides, in the data set on MV-Alaska [2], the EC50 worked out at 0.014 µM. In the data set on Vero cells, this compound displayed a CC50 greater than 75 µM. In data set [3] (oral 10 mg/kg), the “AUC (0-t)” value is 132 ng·h/mL, the “AUC (0-∞)” value was found to be 513 ng·h/mL, the Cmax amounted to 26.9 ng/mL and the Tmax was determined as 2.5 h. In data set [3] (oral 10 mg/kg), this compound registered a T½ of 12.7 h. In data set [3] (oral 50 mg/kg), the “AUC (0-t)” value came out at 308 ng·h/mL, the “AUC (0-∞)” value was determined as 483 ng·h/mL, the Cmax stood at 72.2 ng/mL and the time of peak concentration (Tmax) came out at 2.7 h. This compound showed a T½ in data set [3] (oral 50 mg/kg) of 3.7 h.
On to `COCOCC1CCCCN1S(=O)(=O)c1ccc(NC(=O)c2cc(C(F)(F)F)nn2C)cc1` (stereo not shown) [Compound 1a, N-(4-((2-((methoxymethoxy)methyl)piperidin-1-yl)sulfonyl)phenyl)-1-methyl-3-(trifluoromethyl)-pyrazole-5-carboxamide], for which the “fold more potent than the corresponding 3-piperidine” value in the data set with MV-Alaska [4] (MOM ether analogs, CPE assay) is 2 fold. Moreover, the EC50 with MV-Alaska [4] (setting [5]) turned out to be 1.5 µM.
For `COCOCC1CCCN(S(=O)(=O)c2ccc(NC(=O)c3cc(C(F)(F)F)nn3C)cc2)C1` (stereo not shown) [Compound 1b, N-(4-((3-((methoxymethoxy)methyl)piperidin-1-yl)sulfonyl)phenyl)-1-methyl-3-(trifluoromethyl)-pyrazole-5-carboxamide], the EC50 with MV-Alaska [4] (setting [5]) was 3.8 µM.
In the case of `COCOCC1CCN(S(=O)(=O)c2ccc(NC(=O)c3cc(C(F)(F)F)nn3C)cc2)CC1` [Compound 1c, N-(4-((4-((methoxymethoxy)methyl)piperidin-1-yl)sulfonyl)phenyl)-1-methyl-3-(trifluoromethyl)-pyrazole-5-carboxamide], the “fold reduction of activity, 4-substituted derivative” value in the data set with MV-Alaska [4] (MOM ether analogs, CPE assay, versus 2-piperidine 1a) was roughly 10 fold. For the same compound, the EC50 with MV-Alaska [4] (setting [5]) worked out at 16 µM.
In the case of `Cn1nc(C(F)(F)F)cc1C(=O)Nc1ccc(S(=O)(=O)N2CCCCC2CO)cc1` (stereo not shown) [Compound 2a], the “Aqueous solubility (μg/ml) Test” value in data set [1] was determined as 61 µg/mL. For the same compound, the EC50 in the data set on MV-Alaska [2] came to 0.85 ± 0.05 µM; in the data set with MV-Alaska [4] (setting [5]) it was 2.8 µM; in the data set with MV-Alaska [4] (setting [6]), 2.3 µM. In the data set with Vero cells, the CC50 was greater than 75 µM.
Turning to `Cn1nc(C(F)(F)F)cc1C(=O)Nc1ccc(S(=O)(=O)N2CCCCC2CN2CCOCC2)cc1` (stereo not shown) [Compound 2b, 1-methyl-N-(4-((2-(morpholinomethyl)piperidin-1-yl)sulfonyl)phenyl)-3-(trifluoromethyl)-pyrazole-5-carboxamide], in the data set on MV-Alaska [4] (setting [5]), the EC50 was 9.3 µM.
Same read-out and setting: in the case of `Cn1nc(C(F)(F)F)cc1C(=O)Nc1ccc(S(=O)(=O)N2CCCCC2CN=[N+]=[N-])cc1` (stereo not shown) [Compound 2c] it was 1.5 µM.
Regarding `Cn1nc(C(F)(F)F)cc1C(=O)Nc1ccc(S(=O)(=O)N2CCCCC2CN)cc1` (stereo not shown) [Compound 2d, N-(4-((2-(aminomethyl)piperidin-1-yl)sulfonyl)phenyl)-1-methyl-3-(trifluoromethyl)-pyrazole-5-carboxamide], in the data set with MV-Alaska [4] (setting [7]), the EC50 stood at 55 µM.
Turning to `CC(=O)NCC1CCCCN1S(=O)(=O)c1ccc(NC(=O)c2cc(C(F)(F)F)nn2C)cc1` (stereo not shown) [Compound 2e, N-(4-((2-(acetamidomethyl)piperidin-1-yl)sulfonyl)phenyl)-1-methyl-3-(trifluoromethyl)-pyrazole-5-carboxamide], in the data set on MV-Alaska [4] (setting [5]), the EC50 is 14 µM.
`CCOC(=O)/C=C/C1CCCCN1S(=O)(=O)c1ccc(NC(=O)c2cc(C(F)(F)F)nn2C)cc1` (stereo not shown) [Compound 2g, ethyl 3-(1-((4-(1-methyl-3-(trifluoromethyl)-pyrazole-5-carboxamido)phenyl)sulfonyl)piperidin-2-yl)acrylate]: the “fold more active than the corresponding alcohols (2h and 2j)” value with MV-Alaska [4] (CPE assay) worked out at 2 fold. In the data set on MV-Alaska [4] (setting [7]), the half-maximal effective concentration (EC50) came out at 3.7 µM.
With `Cn1nc(C(F)(F)F)cc1C(=O)Nc1ccc(S(=O)(=O)N2CCCCC2/C=C/CO)cc1` (stereo not shown) [Compound 2h, N-(4-((2-(3-hydroxypropyl-1-ene)piperidin-1-yl)sulfonyl)phenyl)-1-methyl-3-(trifluoromethyl)-pyrazole-5-carboxamide], the EC50 in the data set on MV-Alaska [4] (setting [5]) worked out at 6.8 µM.
Regarding `CCOC(=O)CCC1CCCCN1S(=O)(=O)c1ccc(NC(=O)c2cc(C(F)(F)F)nn2C)cc1` (stereo not shown) [Compound 2i, ethyl 3-(1-((4-(1-methyl-3-(trifluoromethyl)-pyrazole-5-carboxamido)phenyl)sulfonyl)piperidin-2-yl)propanoate], in the data set on MV-Alaska [4] (CPE assay), the “fold more active than the corresponding alcohols (2h and 2j)” value was determined as 2 fold. Also, the EC50 with MV-Alaska [4] (setting [5]) was found to be 2.7 µM.
Take `Cn1nc(C(F)(F)F)cc1C(=O)Nc1ccc(S(=O)(=O)N2CCCCC2CCCO)cc1` (stereo not shown) [Compound 2j, N-(4-((2-(3-hydroxypropyl)piperidin-1-yl)sulfonyl)phenyl)-1-methyl-3-(trifluoromethyl)-pyrazole-5-carboxamide]: the EC50 with MV-Alaska [4] (setting [5]) was 6.7 µM.
`Cn1nc(C(F)(F)F)cc1C(=O)Nc1ccc(S(=O)(=O)N2CCCCC2CCO)cc1` (stereo not shown) [Compound 2l, N-(4-((2-(2-hydroxyethyl)piperidin-1-yl)sulfonyl)phenyl)-1-methyl-3-(trifluoromethyl)-pyrazole-5-carboxamide]: the “fold loss of activity compared to 2m” value with MV-Alaska [4] (CPE assay, R versus S chirality) was 3 fold. The EC50 in the data set on MV-Alaska [4] (setting [8]) is 8.3 µM.
With `Cn1nc(C(F)(F)F)cc1C(=O)Nc1ccc(S(=O)(=O)N2CCCCC2CCO)cc1` (stereo not shown) [Compound 2m, N-(4-((2-(2-hydroxyethyl)piperidin-1-yl)sulfonyl)phenyl)-1-methyl-3-(trifluoromethyl)-pyrazole-5-carboxamide], in the data set with MV-Alaska [4] (setting [8]), the EC50 was found to be 3.1 µM.
With `Cn1nc(C(F)(F)F)cc1C(=O)Nc1ccc(S(=O)(=O)N2CCCCC2CCN2CCOCC2)cc1` (stereo not shown) [Compound 2n, 1-methyl-N-(4-((2-(2-morpholinoethyl)piperidin-1-yl)sulfonyl)phenyl)-3-(trifluoromethyl)-pyrazole-5-carboxamide], the “Aqueous solubility (μg/ml) Test” value in data set [1] came out at 55 µg/mL. In the data set on Vero cells, the CC50 is greater than 75 µM. For the same compound, the EC50 with MV-Alaska [4] (setting [5]) was 4.6 µM.
`CCOC(=O)COCC1CCCCN1S(=O)(=O)c1ccc(NC(=O)c2cc(C(F)(F)F)nn2C)cc1` (stereo not shown) [Compound 2p, ethyl 2-((1-((4-(1-methyl-3-(trifluoromethyl)-pyrazole-5-carboxamido)phenyl)sulfonyl)piperidin-2-yl)methoxy)acetate]: the EC50 in the data set on MV-Alaska [4] (setting [5]) was found to be 25 µM.
For `Cn1nc(C(F)(F)F)cc1C(=O)Nc1ccc(S(=O)(=O)N2CCCCC2COCCO)cc1` (stereo not shown) [Compound 2q, N-(4-((2-((2-hydroxyethoxy)methyl)piperidin-1-yl)sulfonyl)phenyl)-1-methyl-3-(trifluoromethyl)-pyrazole-5-carboxamide], the EC50 in the data set with MV-Alaska [4] (setting [5]) was found to be 8.3 µM.
For `Cn1nc(C(F)(F)F)cc1C(=O)Nc1ccc(S(=O)(=O)c2ccccc2)cc1` [Compound 3a, 1-methyl-N-(4-(phenylsulfonyl)phenyl)-3-(trifluoromethyl)-pyrazole-5-carboxamide], the “Aqueous solubility (μg/ml) Test” value in data set [1] is 22 µg/mL. The EC50 was found to be 0.02 µM in the data set with MV-Alaska [2] and 2.8 µM in the data set on MV-Alaska [4] (setting [9]). In the data set with Vero cells, this compound returned a CC50 greater than 75 µM.
In the data set on Vero cells, `COc1ccccc1S(=O)(=O)c1ccc(NC(=O)c2cc(C(F)(F)F)nn2C)cc1` [Compound 3b, N-(4-((2-methoxyphenyl)sulfonyl)phenyl)-1-methyl-3-(trifluoromethyl)-pyrazole-5-carboxamide] registered a CC50 greater than 75 µM. For the same compound, in the data set on MV-Alaska [4] (setting [9]), the EC50 amounted to 3.1 µM.
Regarding `CC(=O)Oc1ccccc1S(=O)(=O)c1ccc(NC(=O)c2cc(C(F)(F)F)nn2C)cc1` [Compound 3d, 2-((4-(1-methyl-3-(trifluoromethyl)-pyrazole-5-carboxamido)phenyl)sulfonyl)phenyl acetate], in the data set with MV-Alaska [4] (setting [9]), the EC50 came out at 4.5 µM.
`Cn1nc(C(F)(F)F)cc1C(=O)Nc1ccc(S(=O)(=O)c2ccccc2CO)cc1` [Compound 3f, N-(4-((2-(hydroxymethyl)phenyl)sulfonyl)phenyl)-1-methyl-3-(trifluoromethyl)-pyrazole-5-carboxamide]: in data set [1], the “Aqueous solubility (μg/ml) Test” value came out at 46 µg/mL. In the data set on Vero cells, this compound showed a CC50 greater than 75 µM. Besides, the EC50 with MV-Alaska [4] (setting [9]) and with MV-Alaska [4] (setting [6]) was 3.1 µM throughout.
